Experimental data: patent US20230389542A1, “USE OF [(1,5-DIPHENYL-1H-PYRAZOL-3-YL)OXY] ACETIC ACID DERIVATIVES AND THEIR SALTS AND COMPOSITIONS CONTAINING THEM, FOR REDUCING PHYTOTOXIC EFFECTS OF AGROCHEMICALS, IN PARTICULAR OF HERBICIDES, IN USEFUL PLANTS AND CROP PLANTS” (BAYER AKTIENGESELLSCHAFT, priority 2020, published 2023)
Several values for one entry are separate records, joined by “and”; a condition that tells them apart may be missing. Equal values may be shown once.

Assays:
Type in all cases: in vivo
[1] = tested on: summer wheat (TRZAS; cv. Triso); assay: Absolute action: reduction of damage by mesosulfuron-methyl on summer wheat, greenhouse post-emergence; design: key to Absolute reduction in damage (difference): percentage points of visual damage (0-100% scale vs untreated)
Protocol: (§1) 2.1 Absolute Action of Selected Compounds of the Invention Using the Example of Reduction of Damage by Mesosulfuron-Methyl on Summer Wheat (TRZAS) The seeds of the crop plants to be treated are laid out in sandy loam in wood fiber or plastic pots (diameter ˜4 cm), covered with soil and grown in a greenhouse under good conditions for germination and growth. The trial plants were treated at the early leaf stage (BBCH10-BBCH12). In the course of this, the inventive compounds of the general formula (D formulated in the form of wettable powders (WP) were sprayed onto the above-ground parts of the plants as an aqueous suspension with a water application rate corresponding to 800 l/ha with addition of wetting agent (e.g. 0.2% agrotin) in the specified dose. This was followed by the application of the herbicide. For this purpose, mesosulfuron-methyl, formulated in the form of water-dispersible granules (WG), was sprayed onto the above-ground parts of the plants in the form of an aqueous dispersion with a water application rate corresponding to 800 l/ha with addition of wetting agent (e.g. 0.2% agrotin) in a dose of 20 g/ha. The dose of the herbicide was chosen here such that it causes visually apparent damage (min. 30%, max. 75%) compared to untreated crop plants at the evaluation time on a control group of crop plants without safener treatment that were included in the same trial. After application, the plants were cultivated under good growth conditions in a greenhouse. The damage was visually assessed 14-21 days after application. The damage effect was assessed visually on a scale of 0-100% by comparison with untreated control plants, and averaged over 2-3 repeats per treatment. Examples: • 0%=no noticeable effect compared to the untreated plant • 20%=the treated plant population has 20% damage compared to the untreated control population (e.g. growth height, leaf damage, etc.) • 100%=treated plants completely damaged/killed.

[2] = tested on: summer barley (HORVS; cv. Montoya); assay: Absolute action: reduction of damage by mesosulfuron-methyl on summer barley, greenhouse post-emergence; design: key to Absolute reduction in damage (difference): difference in % damage (0-100% visual scale vs untreated control)
Protocol: as §1, with “2.2” for “2.1”, “Barley (HORVS)” for “Wheat (TRZAS)”, “(I)” for “(D”

[3] = tested on: summer wheat (TRZAS; cv. Triso); assay: Relative action (efficacy code): reduction of damage by mesosulfuron-methyl on summer wheat; design: key: 0: no reduction in damage (appearance corresponding to the herbicide control); 1: slight reduction in damage; 2: distinct reduction in damage; 3: significant reduction in damage; 4: complete reduction in damage (appearance corresponding to the untreated control); details: visual, 9-13 days after application
Protocol: 2.3 Relative Action of Selected Compounds of the Invention Using the Example of Reduction of Damage by Mesosulfuron-Methyl on Summer Wheat (TRZAS) The seeds of the crop plants to be treated are laid out in sandy loam in plastic pots (diameter μ4 cm), covered with soil and grown in a greenhouse under good conditions for germination and growth. The trial plants were treated at the early leaf stage (BBCH10-BBCH12). In the course of this, the inventive compounds of the general formula (I) formulated in the form of wettable powders (WP) were sprayed onto the above-ground parts of the plants as an aqueous suspension with a water application rate corresponding to 800 l/ha with addition of wetting agent (e.g. 0.2% Genapol-LRO or 0.2% Mero) in the specified dose. This was followed by the application of the herbicide. For this purpose, mesosulfuron-methyl, formulated in the form of water-dispersible granules (WG), was sprayed onto the above-ground parts of the plants in the form of an aqueous dispersion with a water application rate corresponding to 800 l/ha with addition of wetting agent (e.g. 0.2% Genapol-LRO or 1 l/ha Biopower) in a dose of 40-60 g/ha. The dose of the herbicide was chosen here such that it causes visually apparent damage (min. 30%, max. 75%) compared to untreated crop plants at the evaluation time on a control group of crop plants without safener treatment that were included in the same trial. After application, the plants were cultivated under good growth conditions in a greenhouse. 9-13 days after application, the efficacy of the test compounds was assessed visually. For this purpose, the appearance of the plants treated with the test compound and herbicide was compared to the corresponding herbicide controls (without safener; with clearly visible damage) and the untreated controls (without damage). The damage-reducing effect of the test compounds was expressed here in graded efficacy codes according to the following scheme: • 0: no reduction in damage (appearance corresponding to the herbicide control) • 1: slight reduction in damage • 2: distinct reduction in damage • 3: significant reduction in damage • 4: complete reduction in damage (appearance corresponding to the untreated control) The trials show clear efficacy of the inventive compounds selected by way of example with regard to the reduction in damage to the summer wheat crop plant (TRZAS; cv. Triso) caused by the herbicide mesosulfuron-methyl: […]

[4] = safener 125 g/ha + mesosulfuron-methyl 20 g/ha
[5] = safener 125 g/ha + mesosulfuron-methyl 20 g/ha, visual, 14-21 days after application
[6] = safener 500 g/ha + mesosulfuron-methyl 20 g/ha
[7] = safener 500 g/ha + mesosulfuron-methyl 20 g/ha, visual, 14-21 days after application
[8] = safener 100 g/ha + mesosulfuron-methyl 40-60 g/ha
[9] = safener 500 g/ha + mesosulfuron-methyl 40-60 g/ha
[10] = mesosulfuron-methyl 20 g/ha alone (no safener), visual, 14-21 days after application, scale 0-100%

`O=C(O)COc1cc(-c2ccccc2)n(-c2ccc(Cl)cc2)n1` [I.3-7] was tested, and the “Absolute reduction in damage (difference)” value [1, 4] was 26 and the “Herbicide damage with compound of the formula (I)” value (from here on “Herbicide damage with compound”) [1, 5] was 37%.
`COc1ccccc1-n1nc(OCC(=O)O)cc1-c1ccccc1` [I.3-20] was tested, and the “Absolute reduction in damage (difference)” value [1, 6] was 36 and the “Herbicide damage with compound” value [1, 7] was 17%.
With `CCOC(=O)COc1cc(-c2ccc(F)cc2)n(-c2ccccc2OC)n1` [I.11-20] the “Absolute reduction in damage (difference)” value [1, 4] was 46, the “Herbicide damage with compound” value [1, 5] was 7% and the “Absolute reduction in damage (difference)” value [1, 6] was 46. The “Herbicide damage with compound” value [1, 7] was 7%.
With `CCOC(=O)COc1cc(-c2ccc(F)cc2)n(-c2ccc(F)cc2F)n1` [I.11-38] the “Absolute reduction in damage (difference)” value [1, 4] was 43, the “Herbicide damage with compound” value [1, 5] was 10% and the “Absolute reduction in damage (difference)” value [1, 6] was 43. For the same molecule, the “Herbicide damage with compound” value [1, 7] was 10%, the “Absolute reduction in damage (difference)” value [2, 4] was 23 and the “Herbicide damage with compound” value [2, 5] was 37%. For the same molecule, the “Absolute reduction in damage (difference)” value [2, 6] was 33 and the “Herbicide damage with compound” value [2, 7] was 27%.
`O=C(O)COc1cc(-c2ccc(F)cc2)n(-c2ccc(F)cc2)n1` [I.12-4] was tested, and the “Absolute reduction in damage (difference)” value [1, 6] was 46, the “Herbicide damage with compound” value [1, 7] was 7% and the “Absolute reduction in damage (difference)” value [2, 6] was 27. For the same molecule, the “Herbicide damage with compound” value [2, 7] was 33%.
For `CCOC(=O)COc1cc(-c2ccc(Cl)cc2)n(-c2ccc(Cl)cc2F)n1` [I.20-49], the “Efficacy of the safener (efficacy code)” value [3, 8] was 3 and the “Efficacy of the safener (efficacy code)” value [3, 9] was 3.
With `COc1ccccc1-n1nc(OCC(=O)O)cc1-c1ccc(Cl)cc1` [I.21-20] the “Absolute reduction in damage (difference)” value [1, 4] was 30, the “Herbicide damage with compound” value [1, 5] was 23% and the “Absolute reduction in damage (difference)” value [1, 6] was 36. For the same molecule, the “Herbicide damage with compound” value [1, 7] was 17%.
With `O=C(O)COc1cc(-c2ccc(Cl)cc2)n(-c2ccc(F)cc2F)n1` [I.21-38] the “Absolute reduction in damage (difference)” value [1, 4] was 46, the “Herbicide damage with compound” value [1, 5] was 7% and the “Absolute reduction in damage (difference)” value [1, 6] was 50. For the same molecule, the “Herbicide damage with compound” value [1, 7] was 3%, the “Absolute reduction in damage (difference)” value [2, 4] was 33 and the “Herbicide damage with compound” value [2, 5] was 27%. For the same molecule, the “Absolute reduction in damage (difference)” value [2, 6] was 33 and the “Herbicide damage with compound” value [2, 7] was 27%.
`CCOC(=O)COc1cc(-c2ccc(F)cc2F)n(-c2ccccc2)n1` [I.41-1] was tested, and the “Absolute reduction in damage (difference)” value [1, 4] was 53 and the “Herbicide damage with compound” value [1, 5] was 0%.
With `CCOC(=O)COc1cc(-c2ccc(F)cc2F)n(-c2ccc(F)cc2)n1` [I.41-4] the “Absolute reduction in damage (difference)” value [1, 4] was 40, the “Herbicide damage with compound” value [1, 5] was 13% and the “Absolute reduction in damage (difference)” value [2, 4] was 23. The “Herbicide damage with compound” value [2, 5] was 37%.
`CCOC(=O)COc1cc(-c2ccc(F)cc2F)n(-c2ccccc2OC)n1` [I.41-20] was tested, and the “Absolute reduction in damage (difference)” value [1, 4] was 36, the “Herbicide damage with compound” value [1, 5] was 17% and the “Absolute reduction in damage (difference)” value [1, 6] was 43. The “Herbicide damage with compound” value [1, 7] was 10%.
For `CCOC(=O)COc1cc(-c2ccc(F)cc2F)n(-c2ccc(F)cc2F)n1` [I.41-38], the “Absolute reduction in damage (difference)” value [1, 6] was 40, the “Herbicide damage with compound” value [1, 7] was 13% and the “Absolute reduction in damage (difference)” value [2, 6] was 33. For the same molecule, the “Herbicide damage with compound” value [2, 7] was 27%.
`COc1ccccc1-n1nc(OCC(=O)O)cc1-c1ccc(F)cc1F` [I.42-20] was tested, and the “Absolute reduction in damage (difference)” value [1, 4] was 40 and the “Herbicide damage with compound” value [1, 5] was 13%.
With `O=C(O)COc1cc(-c2ccc(F)cc2F)n(-c2ccc(F)cc2F)n1` [I.42-38] the “Absolute reduction in damage (difference)” value [1, 4] was 33, the “Herbicide damage with compound” value [1, 5] was 20% and the “Absolute reduction in damage (difference)” value [2, 4] was 23. The “Herbicide damage with compound” value [2, 5] was 37%.
For `CCOC(=O)COc1cc(-c2ccc(Cl)cc2F)n(-c2ccc(Cl)cc2)n1` [I.47-7], the “Efficacy of the safener (efficacy code)” value [3, 8] was 2 and the “Efficacy of the safener (efficacy code)” value [3, 9] was 2.
With `O=C(O)COc1cc(-c2ccc(Cl)cc2F)n(-c2ccc(F)cc2F)n1` [I.48-38] the “Efficacy of the safener (efficacy code)” value [3, 8] was 2 and the “Efficacy of the safener (efficacy code)” value [3, 9] was 2.
With `COC(=O)c1ccc(CNS(C)(=O)=O)cc1S(=O)(=O)NC(=O)Nc1nc(OC)cc(OC)n1` [mesosulfuron-methyl, reference compound] the “Herbicide damage without compound of the formula (I)” value [1, 10] was 53% and 63% and the “Herbicide damage without compound of the formula (I)” value [2, 10] was 60%.
